Data as given in patent publication US11471502B2, “Neuroprotective peptide” (UNIVERSITY COLLEGE CARDIFF C[…], priority 2017, dated 2022).
“Also recorded” adds a separate entry of the source.

Experiments:
WT mice = assay: Novel Object Recognition Test (NOR); type: in vivo, mouse; details: for memory formation and consolidation in NOR: 24, 48, 72 and 120 h (up to 5 days)
Procedure: a) After a 5 min habituation session in the empty arena on day 1, mice were injected with RB5 (20 mg/kg) or vehicle one hour before the training session with two identical objects on day 2 and were then evaluated for their long-term memory on subsequent days. Discrimination Index (D.I.) was tested at different time points 24, 48, 72, and 120 hrs (a) and also up to 168 h (b). […] On subsequent days, while the RB5 group remained high, the Scramble group returned to basal levels. *p<0.01**p<0.0001. […] At 24 h, D.I. of RB5 group was highly significant (Independent sample t-test t26=4.428 P<0.01, SCR (n=14) RB5 (=14)) as well as at 48 h (Independent sample t-test t38=4.210 P<0.0001, SCR (n=18) RB5 (=22)). […] P<0.001, P<0.01.
The test was performed in an open square box (45×45×45 cm), placed in a quiet room with dim light. The objects used were: parallelepipeds in metal and glass vials filled with water. They had no natural significance for mice and they had never been associated with reinforcement before. The protocol required three days and it was performed as follows:
First day: the mice were individually placed in the empty arena for 5 min in order to familiarize with it and to measure their anxiety (thigmotaxis trial). The percentage of thigmotaxis is calculated as the time spent in the peripheral zone out of the total time spent in the arena (300 sec.). Animals showing a thigmotaxis>90% are discarded from the sample because considered biased for anxiety.
Second day: Mice were injected with either […] CPP-SCR or CPP-RB5 1 h prior to training and then they were placed into the arena for 10 minutes, where they were allowed to explore two identical objects (training trial). Therefore, two different measures (in seconds) for Left Object and Right Object were obtained. […] Then, percentages of exploration for each object were calculated as: the time spent exploring LO or RO, out of the total time of exploration (RO+LO). According to these percentages, experimenter decided where to place the novel object for the test trial.
Third day: one of the two identical objects (Parallelepiped) was changed with a new object (Vial) and the mice were allowed to explore them for 10 minutes (test trial).
Times of exploration for the familiar object (FO) and for the novel object (NO) were separately recorded, with the same procedure as for the training trial. A cut-off of 6 seconds was also considered. In order to attest recognition memory, a discrimination index (D.I.) was calculated as (total time of exploration of NO−total time of exploration of FO)/total time of exploration of (FO+NO). D.I. index is comprised between −1 and +1. A D.I. of 1 would mean perfect memory retention for the […]. Conversely, the more time the animal spends exploring FO the lower will be the D.I. value, meaning poor memory retention for FO. SMART software (Panlab, Barcelona, Spain) was used to run the experiment.

[1] = RB5 brain levels by HPLC-MS/MS after single i.p. administration; type: in vivo, mouse; details: single i.p. 20 mg/kg, mass spectrometry
Procedure: Bioavailability of RB5 in the mouse brain was determined at different time intervals (1, 3, 6, 12 h) after a single i.p. administration of 20 mg/kg. RB5 was then quantified in mouse brain using HPLC-MS/MS. Brain samples were homogenized with 1:4 w/v of 50% acetonitrile, 5% TFA in water with an homogenizer ultra-turrax and then centrifuged at 13000 rpm for 10 min at 4° C. The supernatant was collected and centrifuged at 13000 rpm for 2 minutes at 4° C. The supernatant was then collected in ice, extracted using Sep-Pak cartridges C18, lyophilised and kept at 4° C. before HPLC-MS/MS analysis. Immediately before the analysis samples were suspended in 100 μL of 0.1% HCOOH in water/8% acetonitrile in auto-sampler vials.
HPLC-MS/MS analysis was performed using a system consisting of an Agilent 1200 series HPLC system coupled with an Agilent 6410 Triple Quadruple mass spectrometer. Mass Hunter Workstation v. […] The quantification of mouse brain levels of RB5 and scramble peptides was carried out using an internal standard curve with peptide concentrations ranging from 0.1 to 4 ng per μl. […]
Peptides were then detected on an Agilent 6410 QQQ mass spectrometer using the following parameters: positive ion mode, 5 kV capillary voltage, cone voltage 500 V, gas flow rate 8 L/min at 350° C., nebulizer gas pressure 40 PSI at 350° C., well time 75 msec and Q1 and Q3 set to unit resolution.

Tg2576 mice = assay: Tg2576 mouse model of Alzheimer's Disease, neuroprotection; type: in vivo; details: 20 mg/kg i.p., 7 days
Procedure: Two-way ANOVA Bonferroni post-hoc comparison **p<0.01***p<0.001.
The genetic model of Alzheimer's Disease Tg2576 and their WT controls have been treated for 7 days with RB5/scramble peptide (20 mg/kg, i.p).

zQ175 mice = assay: Nose poke training (FR1) in 9-hole operant boxes, zQ175 model of Huntington's Disease; type: in vivo, mouse
Procedure: WT and zQ175 mice underwent daily 20 minutes nose poke training for 10 consecutive days (days 1-10) on a simple fixed ratio (FR1) schedule of reinforcement. Starting from day 11 mice received one administration of RB5 (20 mg/kg. i.p.) 1 h before the nose poke training. […] White star P<0.0001.
Operant testing was conducted in 16 9-hole operant boxes. Each operant box contains a horizontal array of nine holes with infrared beams localised to the front of each hole to detect nose pokes. A peristaltic pump delivers liquid reinforcement (strawberry milk) into a magazine at the front of the box.
A week before starting the training, mice undergo water restriction for 18 hours/day and are kept under this regimen throughout the experimental procedures. Mice are taught to nose poke on a simple fixed ratio (FR1) schedule of reinforcement: to obtain reward, mice are required to respond to a stimulus light in the central hole via a single nose poke. Mice are trained daily on this program during 20 minutes sessions for 10 days (training phase). Once trained, animals were subdivided in 4 groups and injected with RB5 or scramble (10 mg/kg, i.p.) peptides 1 hour before being tested on FR1 schedule for other 9 days.

## GRKKRRQRRRPPQGGGGGEPRRTEGVGPGVPGEVEMVKGQPFDV (listed as Homo sapiens) [CPP-RB5]
WT mice
  memory formation and consolidation in NOR: greater performances in remembering the object

## CSCC[C@H](NC(=O)[C@H](CCC(=O)O)NC(=O)[C@@H](NC(=O)[C@H](CCC(=O)O)NC(=O)CNC(=O)[C@@H]1CCCN1C(=O)[C@@H](NC(=O)CNC(=O)[C@@H]1CCCN1C(=O)CNC(=O)[C@@H](NC(=O)CNC(=O)[C@H](CCC(=O)O)NC(=O)[C@@H](NC(=O)[C@H](CCCNC(=N)N)NC(=O)[C@H](CCCNC(=N)N)NC(=O)[C@@H]1CCCN1C(=O)[C@H](CCC(=O)O)NC(=O)CNC(=O)CNC(=O)CNC(=O)CNC(=O)CNC(=O)[C@H](CCC(N)=O)NC(=O)[C@@H]1CCCN1C(=O)[C@@H]1CCCN1C(=O)[C@H](CCCNC(=N)N)NC(=O)[C@H](CCCNC(=N)N)NC(=O)[C@H](CCCNC(=N)N)NC(=O)[C@H](CCC(N)=O)NC(=O)[C@H](CCCNC(=N)N)NC(=O)[C@H](CCCNC(=N)N)NC(=O)[C@H](CCCCN)NC(=O)[C@H](CCCCN)NC(=O)[C@H](CCCNC(=N)N)NC(=O)CNC(C)=O)[C@@H](C)O)C(C)C)C(C)C)C(C)C)C(=O)N[C@H](C(=O)N[C@@H](CCCCN)C(=O)NCC(=O)N[C@@H](CCC(N)=O)C(=O)N1CCC[C@H]1C(=O)N[C@@H](Cc1ccccc1)C(=O)N[C@@H](CC(=O)O)C(=O)N[C@@H](C(=O)O)C(C)C)C(C)C [RB5]
[1]
  time up to which high RB5 brain levels were detected: up to 6 h
WT mice
  memory formation and consolidation in NOR: significantly enhanced
WT mice; 24 h, 20 mg/kg 1 h before training
  Discrimination Index (D.I.): significantly higher than the Scramble group
WT mice; 48 h, vs chance level
  Discrimination Index (D.I.): greatly above it
WT mice; 72 h
  Discrimination Index (D.I.): remained highly significant
WT mice; 120 h
  Discrimination Index (D.I.): still highly significant
WT mice; 168 h
  Discrimination Index (D.I.) / performance: dropped to basal levels indistinguishable from SCR group; also recorded: went down to basal levels indistinguishable from SCR group
Tg2576 mice
  ERK activation (pERK) in hippocampal CA1 and Dentate Gyrus: increased pERK; also recorded: significant enhancement of ERK activation
  pre-apoptotic state (Cleaved Caspase-3 staining): reduced the levels of cleaved caspase-3 staining; also recorded: significant reduction of the pre-apoptotic state
zQ175 mice; WT and zQ175 female mice, 9 days of RB5 treatment
  nose poke performances / responses: significant enhancement of the responses; also recorded: improved performances
zQ175 mice; zQ175 female mice, 20 mg/kg i.p. 1 h before training from day 11
  nose poke responding: significantly improved
